Source: US8129380B2, “Phthalazinone derivatives” (AstraZeneca AB, priority 2008, dated 2012)

System: HeLa cells
Assay: Potentiation Factor (PF50): MMS growth inhibition, SRB assay
Type: cell-based
Settings: MMS 0-10 μg/ml, PARP inhibitor at 30 nM, ratio IC50 control / IC50 + inhibitor
Protocol: The Potentiation Factor (PF50) for compounds is calculated as a ratio of the IC50 of control cell growth divided by the IC50 of cell growth+PARP inhibitor. Growth inhibition curves for both control and compound treated cells are in the presence of the alkylating agent methyl methanesulfonate (MMS). The test compounds were used at a fixed concentration of 0.2 micromolar. The concentrations of MMS were over a range from 0 to 10 μg/ml.
2,000 HeLa cells were seeded into each well of a flat-bottomed 96-well microtiter plate in a volume of 100 μl and incubated for 6 hours at 37° C. Cells were either replaced with media alone or with media containing PARP inhibitor at a final concentration of 30 nM or 200 nM. […] Cells treated with PARP inhibitor alone were used to assess the growth inhibition by the PARP inhibitor.
Cells were left for a further 16 hours before replacing the media and allowing the cells to grow for a further 72 hours at 37° C. The media was then removed and the cells fixed with 100 μl of ice cold 10% (w/v) trichloroacetic acid. The plates were incubated at 4° C. for 20 minutes and then washed four times with water. Each well of cells was then stained with 100 μl of 0.4% (w/v) SRB in 1% acetic acid for 20 minutes before washing four times with 1% acetic acid. Plates were then dried for 2 hours at room temperature. The dye from the stained cells was solubilized by the addition of 100 μl of 10 mM Tris Base into each well.

First: O=C(c1cc(Cc2n[nH]c(=O)c3ccccc23)ccc1F)N1CCC(OC2CCCC2)CC1 [Compound 36, 4-(3-(4-(cyclopentyloxy)piperidine-1-carbonyl)-4-fluorobenzyl)phthalazin-1(2H)-one]
Second: O=C(c1cc(Cc2n[nH]c(=O)c3ccccc23)ccc1F)N1CCC(OCC2CCCO2)CC1 (centres unmarked) [Compound 20, 4-[[4-fluoro-3-[4-(oxolan-2-ylmethoxy)piperidine-1-carbonyl]phenyl]methyl]-2H-phthalazin-1-one]
The “PF50 (30 nM)” value of the first is higher: 14.5 for the first, 2.0 for the second.

Compared with `COC1(C)CCN(C(=O)c2cc(Cc3n[nH]c(=O)c4ccccc34)ccc2F)CC1` [Compound 24, 4-[[4-fluoro-3-(4-methoxy-4-methylpiperidine-1-carbonyl)phenyl]methyl]-2H-phthalazin-1-one], `CC(C)(C)OC1CCN(C(=O)c2cc(Cc3n[nH]c(=O)c4ccccc34)ccc2F)CC1` [Compound 70, 4-(3-(4-tert-butoxypiperidine-1-carbonyl)-4-fluorobenzyl)phthalazin-1(2H)-one] is higher in “PF50 (30 nM)” value: 1.5 for the first, 32.1 for the second.

First: Cc1nccnc1OC1CCN(C(=O)c2cc(Cc3n[nH]c(=O)c4ccccc34)ccc2F)CC1 [Compound 26h]
Second: Cc1cnc(C)c(OC2CCN(C(=O)c3cc(Cc4n[nH]c(=O)c5ccccc45)ccc3F)CC2)n1 [Compound 26j]
The “PF50 (30 nM)” value of the first is higher: 12.7 for the first, 1.2 for the second.

Going from `O=C(COC1CCN(C(=O)c2cc(Cc3n[nH]c(=O)c4ccccc34)ccc2F)CC1)N1CCOCC1` [Compound 77, 4-(4-fluoro-3-(4-(2-morpholino-2-oxoethoxy)piperidine-1-carbonyl)benzyl)phthalazin-1(2H)-one] to `CN(C)C(=O)COC1CCN(C(=O)c2cc(Cc3n[nH]c(=O)c4ccccc34)ccc2F)CC1` [Compound 83, 2-(1-(2-fluoro-5-((4-oxo-3,4-dihydrophthalazin-1-yl)methyl)benzoyl)piperidin-4-yloxy)-N,N-dimethylacetamide], the “PF50 (30 nM)” value falls from 3.1 to 1.7.

Going from `N#CCc1ccc(OC2CCN(C(=O)c3cc(Cc4n[nH]c(=O)c5ccccc45)ccc3F)CC2)cc1` [Compound 8f, 2-[4-[1-[2-fluoro-5-[(4-oxo-3H-phthalazin-1-yl)methyl]benzoyl]piperidin-4-yl]oxyphenyl]acetonitrile] to `O=C(c1cc(Cc2n[nH]c(=O)c3ccccc23)ccc1F)N1CCC(Oc2ccc(F)cc2)CC1` [Compound 2c], the “PF50 (30 nM)” value falls from 4.1 to 1.9.

Going from `Cc1cnc(OC2CCN(C(=O)c3cc(Cc4n[nH]c(=O)c5ccccc45)ccc3F)CC2)c(C)n1` [Compound 26i] to `O=C(c1cc(Cc2n[nH]c(=O)c3ccccc23)ccc1F)N1CCC(Oc2ccc(Cl)nc2)CC1` [Compound 26m], the “PF50 (30 nM)” value falls from 8.0 to 2.4.

First: COC1CCN(C(=O)c2cc(Cc3n[nH]c(=O)c4cccc(Cl)c34)ccc2F)CC1 [Compound 104a, 5-chloro-4-(4-fluoro-3-(4-methoxypiperidine-1-carbonyl)benzyl)phthalazin-1(2H)-one]
Second: CCOC1CCN(C(=O)c2cc(Cc3n[nH]c(=O)c4cccc(Cl)c34)ccc2F)CC1 [Compound 104b, 5-chloro-4-(3-(4-ethoxypiperidine-1-carbonyl)-4-fluorobenzyl)phthalazin-1(2H)-one]
The “PF50 (30 nM)” value of the first is lower: 1.3 for the first, 2.2 for the second.

Compared with `O=C(c1cc(Cc2n[nH]c(=O)c3ccccc23)ccc1F)N1CCC(OC(CF)CF)CC1` [Compound 29, 4-(3-(4-(1,3-difluoropropan-2-yloxy)piperidine-1-carbonyl)-4-fluorobenzyl)phthalazin-1(2H)-one], `COC[C@H](C)OC1CCN(C(=O)c2cc(Cc3n[nH]c(=O)c4ccccc34)ccc2F)CC1` [Compound 93, (S)-4-(4-fluoro-3-(4-(1-methoxypropan-2-yloxy)piperidine-1-carbonyl)benzyl)phthalazin-1(2H)-one] is lower in “PF50 (30 nM)” value: 25.9 for the first, 2.8 for the second.

First: CC(C)OC1CCN(C(=O)c2cccc(Cc3n[nH]c(=O)c4ccccc34)c2)CC1 [Compound 12]
Second: CC(C)COC1CCN(C(=O)c2cc(Cc3n[nH]c(=O)c4ccccc34)ccc2F)CC1 [Compound 2h]
The “PF50 (30 nM)” value of the first is lower: 2.1 for the first, 2.9 for the second.

Compared with `COc1ccccc1OC1CCN(C(=O)c2cc(Cc3n[nH]c(=O)c4ccccc34)ccc2F)CC1` [Compound 8d, 4-[[4-fluoro-3-[4-(2-methoxyphenoxy)piperidine-1-carbonyl]phenyl]methyl]-2H-phthalazin-1-one], `O=C(c1cc(Cc2n[nH]c(=O)c3ccccc23)ccc1F)N1CCC(Oc2ccccn2)CC1` [Compound 2i] is higher in “PF50 (30 nM)” value: 1.2 for the first, 16.7 for the second.

First: COc1cccc2c(=O)[nH]nc(Cc3ccc(F)c(C(=O)N4CCC(OC)CC4)c3)c12 [Compound 126a, 4-(4-fluoro-3-(4-methoxypiperidine-1-carbonyl)benzyl)-5-methoxyphthalazin-1(2H)-one]
Second: COC1CCN(C(=O)c2cc(Cc3n[nH]c(=O)c4ccc(N)cc34)ccc2F)CC1 [Compound 99, 6-amino-4-(4-fluoro-3-(4-methoxypiperidine-1-carbonyl)benzyl)phthalazin-1(2H)-one]
The “PF50 (30 nM)” value of the first is higher: 11.0 for the first, 1.0 for the second.

First: O=C(c1cc(Cc2n[nH]c(=O)c3ccccc23)ccc1F)N1CCC(OCc2ccccc2)CC1 [Compound 8e, 4-[[4-fluoro-3-(4-phenylmethoxypiperidine-1-carbonyl)phenyl]methyl]-2H-phthalazin-1-one]
Second: C=CCOC1CCN(C(=O)c2cc(Cc3n[nH]c(=O)c4ccccc34)ccc2F)CC1 [Compound 16]
The “PF50 (30 nM)” value of the first is lower: 1.4 for the first, 3.4 for the second.

Compared with `CC(C)COC1CCN(C(=O)c2cccc(Cc3n[nH]c(=O)c4c(F)ccc(F)c34)c2)CC1` [Compound 4c], `O=C(c1cccc(Cc2n[nH]c(=O)c3c(F)ccc(F)c23)c1)N1CCC(Oc2ccccn2)CC1` [Compound 4b] is higher in “PF50 (30 nM)” value: 1.2 for the first, 2.2 for the second.

First: O=C(c1cc(Cc2n[nH]c(=O)c3ccccc23)ccc1F)N1CCC2(CC1)OCc1ccccc12 [Compound 9, 4-(4-fluoro-3-(3H-spiro[isobenzofuran-1,4′-piperidine]-1′-ylcarbonyl)benzyl)phthalazin-1(2H)-one]
Second: O=C(c1cc(Cc2n[nH]c(=O)c3ccccc23)ccc1F)N1CCC(Oc2ncccn2)CC1 [Compound 26e]
The “PF50 (30 nM)” value of the first is lower: 1.3 for the first, 2.7 for the second.

Going from `COC1CCN(C(=O)c2cc(Cc3n[nH]c(=O)c4ccccc34)ccn2)CC1` [Compound 6c] to `O=C(c1cc(Cc2n[nH]c(=O)c3ccccc23)ccn1)N1CCC(Oc2ccc(Cl)cc2)CC1` [Compound 6a], the “PF50 (30 nM)” value rises from 1.2 to 1.7.

First: COC1CCN(C(=O)c2cc(Cc3n[nH]c(=O)c4c(C)[nH]c(C)c34)ccc2F)CC1 [Compound 58, 4-(4-fluoro-3-(4-methoxypiperidine-1-carbonyl)benzyl)-5,7-dimethyl-2,6-dihydro-1H-pyrrolo[3,4-d]pyridazin-1-one]
Second: CCOC1CCN(C(=O)c2cc(Cc3n[nH]c(=O)c4c(C)[nH]c(C)c34)ccc2F)CC1 [Compound 54, 4-(3-(4-ethoxypiperidine-1-carbonyl)-4-fluorobenzyl)-5,7-dimethyl-2,6-dihydro-1H-pyrrolo[3,4-d]pyridazin-1-one]
The “PF50 (30 nM)” value of the first is lower: 1.0 for the first, 1.3 for the second.

Same assay, conditions: MMS 0-10 μg/ml, PARP inhibitor at 200 nM, ratio IC50 control / IC50 + inhibitor

Compared with `O=C(c1cc(Cc2n[nH]c(=O)c3ccccc23)ccc1F)N1CCC(OC2CCCC2)CC1` [Compound 36, 4-(3-(4-(cyclopentyloxy)piperidine-1-carbonyl)-4-fluorobenzyl)phthalazin-1(2H)-one], `O=C(c1cc(Cc2n[nH]c(=O)c3ccccc23)ccc1F)N1CCC(O)CC1` [Compound 2a, 4-(4-fluoro-3-(4-hydroxypiperidine-1-carbonyl)benzyl)phthalazin-1(2H)-one] is lower in “PF50 (200 nM)” value: 24.3 for the first, 3 for the second.

Compared with `CC(C)(C)OC1CCN(C(=O)c2cc(Cc3n[nH]c(=O)c4ccccc34)ccc2F)CC1` [Compound 70, 4-(3-(4-tert-butoxypiperidine-1-carbonyl)-4-fluorobenzyl)phthalazin-1(2H)-one], `O=C(c1cc(Cc2n[nH]c(=O)c3ccccc23)ccc1F)N1CCC(Oc2ccc(F)cc2)CC1` [Compound 2c] is lower in “PF50 (200 nM)” value: 19.5 for the first, 7 for the second.

Compared with `COC1CCN(C(=O)c2cc(Cc3n[nH]c(=O)c4ccccc34)ccn2)CC1` [Compound 6c], `O=C(c1cc(Cc2n[nH]c(=O)c3ccccc23)ccn1)N1CCC(Oc2ccc(Cl)cc2)CC1` [Compound 6a] is higher in “PF50 (200 nM)” value: 1.5 for the first, 4.2 for the second.
